How the values were obtained:
[1] = test system: HBV replication in HepAD38 cells; experiment: Anti-HBV replication assay in HepAD38 cells (QPCR of extracellular HBV DNA); format: cell-based, HBV (genotype D, serotype ayw); settings: Hepatitis B virus, 168 h, 7 days incubation, extracellular HBV DNA by QPCR, read-out: Anti-HBV EC50
Procedure, shortened: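 Stably transfected HepG2-derived HepAD38 cells express HBV (genotype D, ayw) once tetracycline is withdrawn. Compounds act for 7 days, after which secreted HBV DNA is quantified by QPCR relative to DMSO-treated wells.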

[2] = In vitro cytotoxicity assay (MTT cell viability) in HepG2 cells; format: cell-based, human; settings: human
Procedure, shortened: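 Using MTT conversion as the viability measure, HepG2 cells were incubated with compounds for 7 days (30 μM to 1.0 nM). Absorbance at 492 nm was normalized to vehicle and fitted to give CC50.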

Row | Structure (SMILES) | EC50 [1] [nM] | CC50 at 7 days [2] [nM]
1 | Cc1cc(NC(=O)c2c(C)c(C(=O)C(=O)NC(C)(C)CO)n(C)c2C)ccc1F [Example 8, N-(4-fluoro-3-methylphenyl)-5-(2-((1-hydroxy-2-methylpropan-2-yl)amino)-2-oxoacetyl)-1,2,4-trimethyl-1H-pyrrole-3-carboxamide] | < 50 | > 30000
2 | Cc1c(C(=O)Nc2cccc(Cl)c2)c(C)n(C)c1C(=O)C(=O)N[C@H](C)C(F)(F)F [Example 603, (R)-N-(3-chlorophenyl)-1,2,4-trimethyl-5-(2-oxo-2-((1,1,1-trifluoropropan-2-yl)amino)acetyl)-1H-pyrrole-3-carboxamide] | < 50 | 5000 to 30000
3 | Cc1cc(NC(=O)c2c(C)c(C(=O)C(=O)N[C@@H]3c4ccccc4C[C@@H]3O)n(C)c2C)ccc1F [Example 258, N-(4-fluoro-3-methylphenyl)-5-(2-(((1R,2S)-2-hydroxy-2,3-dihydro-1H-inden-1-yl)amino)-2-oxoacetyl)-1,2,4-trimethyl-1H-pyrrole-3-carboxamide] | < 50 | 5000 to 30000
4 | COC(=O)[C@H](NC(=O)C(=O)c1c(C)c(C(=O)Nc2ccc(F)c(C)c2)c(C)n1C)[C@H](C)O [Example 28, methyl (2-(4-((4-fluoro-3-methylphenyl)carbamoyl)-1,3,5-trimethyl-1H-pyrrol-2-yl)-2-oxoacetyl)-D-threoninate] | < 50 | > 30000
5 | Cc1cc(NC(=O)c2c(C)c(C(=O)C(=O)Nc3ccn(C)n3)n(C)c2C)ccc1F [Example 306, N-(4-fluoro-3-methylphenyl)-1,2,4-trimethyl-5-(2-((1-methyl-1H-pyrazol-3-yl)amino)-2-oxoacetyl)-1H-pyrrole-3-carboxamide] | < 50 | > 30000
6 | Cc1cc(NC(=O)c2c(Cl)c(C(=O)C(=O)N[C@H]3CCC[C@H]3O)n3c2CCCC3)ccc1F [Example 506, 2-chloro-N-(4-fluoro-3-methylphenyl)-3-(2-(((1S,2R)-2-hydroxycyclopentyl)amino)-2-oxoacetyl)-5,6,7,8-tetrahydroindolizine-1-carboxamide] | 500 to 1000 | 5000 to 30000
7 | Cc1c(C(=O)Nc2cccc(Cl)c2)c(C)n(C)c1C(=O)C(=O)NC1(C(F)(F)F)CCOCC1 [Example 604, N-(3-chlorophenyl)-1,2,4-trimethyl-5-(3-oxo-2-((4-(trifluoromethyl)tetrahydro-2H-pyran-4-yl)amino)acetyl)-1H-pyrrole-3-carboxamide] | < 50 | 5000 to 30000
8 | Cc1cc(NC(=O)c2c(C)c(C(=O)C(=O)NCc3cnc(N)s3)n(C)c2C)ccc1F [Example 97, 5-(2-(((2-aminothiazol-5-yl)methyl)amino)-2-oxoacetyl)-N-(4-fluoro-3-methylphenyl)-1,2,4-trimethyl-1H-pyrrole-3-carboxamide] | < 50 | > 30000
9 | Cc1c(C(=O)NC2CCC(F)(F)C2)c2n(c1C(=O)C(=O)NC1(CO)CCC1)CCCC2 (stereo not shown) [Example 744, N-(3,3-difluorocyclopentyl)-3-(2-((1-(hydroxymethyl)cyclobutyl)amino)-2-oxoacetyl)-2-methyl-5,6,7,8-tetrahdyroindolizine-1-carboxamide] | 50 to 499 | > 30000
10 | Cc1cc(NC(=O)c2c(C)c(C(=O)C(=O)NC3(C)CCN(C(=O)c4cn(C)nc4C(F)F)CC3)n(C)c2C)ccc1F [Example 708, 5-(2-((1-(3-(difluoromethyl)-1-methyl-1H-pyrazole-4-carbonyl)-4-methylpiperidin-4-yl)amino)-2-oxoacetyl)-N-(4-fluoro-3-methylphenyl)-1,2,4-trimethyl-1H-pyrrole-3-carboxamide] | < 50 | > 30000
11 | Cc1cc(NC(=O)c2c(C)c(C(=O)C(=O)NCC(C)(C)N3CCOCC3)n(C)c2C)ccc1F [Example 352, N-(4-fluoro-3-methylphenyl)-1,2,4-trimethyl-5-(2-((2-methyl-2-morpholinopropyl)amino)-2-oxoacetyl)-1H-pyrrole-3-carboxamide] | 50 to 499 | > 30000
12 | Cc1cc(NC(=O)c2c(C)c(C(=O)C(=O)NC(C)(C)C(N)=O)n(CCO)c2C)ccc1F [Example 72, 5-(2-((1-amino-2-methyl-1-oxopropan-2-yl)amino)-2-oxoacetyl)-N-(4-fluoro-3-methylphenyl)-1-(2-hydroxyethyl)-2,4-dimethyl-1H-pyrrole-3-carboxamide] | > 1000 | > 30000
13 | Cc1c(C(=O)Nc2ccc(F)c(Cl)c2)c2n(c1C(=O)C(=O)NCc1cnc(N)s1)CCCC2 [Example 448, 3-(2-(((2-aminothiazol-5-yl)methyl)amino)-2-oxoacetyl)-N-(3-chloro-4-fluorophenyl)-2-methyl-5,6,7,8-tetrahydroindolizine-1-carboxamide] | < 50 | 5000 to 30000
14 | Cc1cc(NC(=O)c2c(C)c(C(=O)C(=O)N[C@H]3COC[C@@H]3O)n(CCF)c2C)ccc1F [Example 130, N-(4-fluoro-3-methylphenyl)-1-(2-fluoroethyl)-5-(2-(((3S,4R)-4-hydroxytetrahydrofuran-3-yl)amino)-2-oxoacetyl)-2,4-dimethyl-1H-pyrrole-3-carboxamide] | 50 to 499 | > 30000
15 | Cc1cc(NC(=O)c2c(C)c(C(=O)C(=O)N[C@@H]3CCOC[C@H]3O)n(C)c2C)cnc1F [Example 164, N-(6-fluoro-5-methylpyridin-3-yl)-5-(2-(((3S,4R)-3-hydroxytetrahydro-2H-pyran-4-yl)amino)-2-oxoacetyl)-1,2,4-trimethyl-1H-pyrrole-3-carboxamide] | 500 to 1000 | > 30000
16 | Cc1cc(NC(=O)c2c(C)c(C(=O)C(=O)N[C@@H](C(=O)O)[C@H](C)O)n(C)c2C)ccc1F [Example 35, (2-(4-((4-fluoro-3-methylphenyl)carbamoyl)-1,3,5-trimethyl-1H-pyrrol-2-yl)-2-oxoacetyl)-D-threonine] | > 1000 | > 30000
17 | Cc1cc(NC(=O)c2c(C)c(C(=O)C(=O)N[C@H](C(=O)O)[C@H](C)O)n(C)c2C)ccc1F [Example 51, (2-(4-((4-fluoro-3-methylphenyl)carbamoyl)-1,3,5-trimethyl-1H-pyrrol-2-yl)-2-oxoacetyl)-L-allothreonine] | 50 to 499 | > 30000
18 | Cc1cc(NC(=O)c2c(C)c(C(=O)C(=O)NC3CCS(=O)(=O)CC3)n(C)c2C)ccc1F [Example 249, 5-(2-((1,1-dioxidotetrahydro-2H-thiopyran-4-yl)amino)-2-oxoacetyl)-N-(4-fluoro-3-methylphenyl)-1,2,4-trimethyl-1H-pyrrole-3-carboxamide] | < 50 | 5000 to 30000
19 | Cc1cc(NC(=O)c2c(C)c(C(=O)C(=O)N[C@H]3CCC[C@H]3O)n(C)c2C)ccc1F [Example 94, N-(4-fluoro-3-methylphenyl)-5-(2-(((1S,2R)-2-hydroxycyclopentyl)amino)-2-oxoacetyl)-1,2,4-trimethyl-1H-pyrrole-3-carboxamide] | < 50 | > 30000
20 | Cc1cc(NC(=O)c2c(Cl)c(C(=O)C(=O)NC(C)(C)CO)n3c2CCCC3)cnc1F [Example 508, 2-chloro-N-(6-fluoro-5-methylpyridin-3-yl)-3-(2-((1-hydroxy-2-methylpropan-2-yl)amino)-2-oxoacetyl)-5,6,7,8-tettrahydroindolizine-1-carboxamide] | 500 to 1000 | > 30000

Reference: US20190375708A1 (VenatoRx Pharmaceuticals, Inc., priority 2018, published 2019)
